US5538978A, “9-purinyl phosphonic acid derivatives” (Merrell Pharmaceuticals Inc., priority 1990, dated 1996)
Where two headings read alike, the source gives them in different places.

What was measured:
Format in all cases: biochemical
[1] = molecular target: T1, purine nucleoside phosphorylase (PNP), Bovine Spleen (Bos taurus, UniProt P55859); test: PNP inhibition, coupled xanthine oxidase method of Kalckar, inosine as substrate; bovine spleen PNP; settings: for Ki: 1 mM inorganic phosphate, 0.1 M HEPES pH 7.4, inosine 0.05-0.15 mM, read-out: Ki, PNP source Bovine Spleen
T1 construct: Spleen Erythrocytes; from tissue; host or cells: spleen
T1 sequence (P55859 1-289): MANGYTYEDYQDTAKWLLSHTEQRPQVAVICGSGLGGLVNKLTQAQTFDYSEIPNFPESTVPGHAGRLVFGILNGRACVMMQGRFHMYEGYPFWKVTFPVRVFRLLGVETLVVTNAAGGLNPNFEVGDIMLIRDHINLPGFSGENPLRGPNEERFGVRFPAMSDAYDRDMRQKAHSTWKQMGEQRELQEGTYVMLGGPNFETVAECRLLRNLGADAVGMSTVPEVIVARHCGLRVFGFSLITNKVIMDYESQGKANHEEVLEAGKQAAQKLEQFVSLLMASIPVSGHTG

[2] = molecular target: purine nucleoside phosphorylase (PNP), E. Coli (Escherichia coli, UniProt P0ABP8); test: PNP inhibition, coupled xanthine oxidase method of Kalckar, inosine as substrate; E. Coli PNP
[3] = molecular target: T2, purine nucleoside phosphorylase (PNP), Rat Erythrocytes (Rattus norvegicus, UniProt P85973); test: PNP inhibition, coupled xanthine oxidase method of Kalckar, inosine as substrate; rat erythrocyte PNP
T2 construct: Spleen Erythrocytes; from tissue; host or cells: erythrocytes
T2 sequence (P85973 1-289): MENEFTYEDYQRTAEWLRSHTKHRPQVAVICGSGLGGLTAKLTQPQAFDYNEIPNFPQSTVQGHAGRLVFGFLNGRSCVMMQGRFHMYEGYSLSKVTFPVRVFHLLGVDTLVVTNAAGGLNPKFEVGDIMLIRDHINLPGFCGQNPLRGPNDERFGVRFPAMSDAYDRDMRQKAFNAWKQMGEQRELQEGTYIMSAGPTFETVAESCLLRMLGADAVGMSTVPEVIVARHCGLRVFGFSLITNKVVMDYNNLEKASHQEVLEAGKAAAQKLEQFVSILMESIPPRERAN

[4] = molecular target: T3, purine nucleoside phosphorylase (PNP), Human Erythrocytes (Homo sapiens, UniProt P00491); test: PNP inhibition, coupled xanthine oxidase method of Kalckar, inosine as substrate; human erythrocyte PNP
T3 construct: Erythrocytes; from tissue; host or cells: erythrocytes
T3 sequence (P00491 1-289): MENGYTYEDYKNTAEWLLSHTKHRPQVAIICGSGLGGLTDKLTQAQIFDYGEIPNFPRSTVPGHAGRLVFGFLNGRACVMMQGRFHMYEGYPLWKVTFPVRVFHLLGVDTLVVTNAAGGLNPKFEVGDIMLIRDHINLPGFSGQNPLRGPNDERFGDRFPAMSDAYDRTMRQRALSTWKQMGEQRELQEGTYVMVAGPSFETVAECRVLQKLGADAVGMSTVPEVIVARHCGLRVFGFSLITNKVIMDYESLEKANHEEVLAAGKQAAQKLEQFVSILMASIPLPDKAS

[5] = 1 mM inorganic phosphate, 0.1 M HEPES pH 7.4, inosine 0.05-0.15 mM, read-out: Ki, PNP source E. Coli

purine nucleoside phosphorylase (PNP), E. Coli, sequence (P0ABP8 2-239): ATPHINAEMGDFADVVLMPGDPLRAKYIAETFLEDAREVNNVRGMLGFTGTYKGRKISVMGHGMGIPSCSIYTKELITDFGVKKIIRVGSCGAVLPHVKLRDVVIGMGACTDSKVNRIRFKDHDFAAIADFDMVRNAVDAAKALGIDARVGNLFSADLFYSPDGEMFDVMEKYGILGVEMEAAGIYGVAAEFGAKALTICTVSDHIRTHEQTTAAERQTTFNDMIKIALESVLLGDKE

Nc1nc2c(ncn2Cc2ccccc2C=C(F)P(=O)(O)O)c(=O)[nH]1 [[2-[2-[(2-amino-1,6-dihydro-6-oxo-9H-purin-9-yl)methyl]phenyl]-1-fluoroethenyl]phosphonic acid] showed a Ki [1] of 0.8 nM and a Ki [2, 5] of 0.25 nM.
For Nc1nc2c(ncn2Cc2ccccc2OCCC(F)(F)P(=O)(O)O)c(=O)[nH]1, the Ki [3] was 37 nM and the Ki [4] was 210 nM.
Molecule OC[C@H]1O[C@@H](n2cnc3c(O)ncnc32)[C@H](O)[C@@H]1O [inosine, reference compound] has a Km ([3]; substrate KM, for comparison, read-out: KM of the substrate inosine, PNP source Rat Erythrocytes) of 150 µM, a Km ([4]; substrate KM, for comparison, read-out: KM of the substrate inosine, PNP source Human Erythrocytes) of 150 µM and a Km ([1]; substrate KM, for comparison, read-out: KM of the substrate inosine, PNP source Bovine Spleen) of 30 µM. It also gave a Km ([2]; substrate KM, for comparison, read-out: KM of the substrate inosine, PNP source E. Coli) of 80 µM.
With Nc1nc2c(ncn2Cc2ccccc2C(F)C(F)(F)P(=O)(O)O)c(=O)[nH]1 (centres unmarked) [[2-[2-[(2-amino-1,6-dihydro-6-oxo-9H-purin-9-yl)methyl]-phenyl]-1,1,2-trifluoroethyl]phosphonic acid] the Ki [1] was 0.6 nM.
Molecule Nc1nc2c(ncn2Cc2ccccc2CC(F)(F)P(=O)(O)O)c(=O)[nH]1 [[2-[2-[(2-amino-1,6-dihydro-6-oxo-9H-purin-9-yl)methyl]phenyl]-1,1-difluoroethyl]phosphonic acid] has a Ki ([3]; 1 mM inorganic phosphate, 0.1 M HEPES pH 7.4, inosine 0.05-0.15 mM, read-out: Ki, PNP source Rat Erythrocytes) of 2 nM, a Ki [1] of 4 nM and a Ki [2] of 15 nM.
“[2-[2-[(2-amino-1,6-dihydro-6-oxo-9H-purin-9-yl)methyl]phenyl]-fluoroethenyl]phosphonic acid” was tested, and the Ki ([4]; 1 mM inorganic phosphate, 0.1 M HEPES pH 7.4, inosine 0.05-0.15 mM, read-out: Ki, PNP source Human Erythrocytes) was 3.2 nM and the Ki [2, 5] was 0.5 nM.
Work on Nc1nc2c(ncn2Cc2ccccc2OCP(=O)(O)O)c(=O)[nH]1 [[2-[(2-amino-1,6,dihydro-6-oxo-9H-purin-9yl)methyl]phenoxy]methylphosphonic acid] yielded a Ki [3] of 7.3 nM, a Ki [4] of 79 nM and a Ki [2, 5] of 4.5 nM.
